How the values were obtained:
mice [1] = test: Exendin-4 oral spray prior to meals, food intake; type: in vivo
Text: PYY and GLP-1 are both produced in […] L-cells and secreted simultaneously into the blood stream in response to nutrient uptake. […] Similarly, a decrease in food intake of mice given Exendin-4 (Ex-4), a GLP-1 analog, in the form of an oral spray prior to meals was observed. Both of these peptides individually modulate body weight, we have evidence that, when used in combination, PYY and Ex-4 may have a synergistic effect on modulation of body weight.

mice [2] = test: PYY mouth spray, food intake after 24 hours fasting; type: in vivo
Method: FIGS. 4A-4D depict the effects of Peptide YY Mouth Spray.
Synthetic PYY was purchased from Bachem, Inc USA (Cat #H-6042) and diluted in sterile H2O. Sterile un-used perfume sample vials (Saphora) were utilized to administer PYY in the form of a mouth spray. It was estimated that the volume of one spray approximates to about […].
Mice were conditioned three times to 24 hours fasting starting at the beginning of the dark cycle and ending at the end of the light cycle. At the end of the fasting cycle and as a part of conditioned routine, a sterile water spray had been administered into the mouth. All the experiments were done during the first hour of the dark cycle after fasting. Once the dark cycle started, mice were sprayed once with either PYY or sterile H2O in a total volume of […] per spray. After the treatment, mice were returned to their cages and ten minutes later pre-weighted chow was provided. One hour later, the amount of consumed chow had been recorded by measuring the leftover amount. When the experiments were repeated, mice were fasted only once a week with the control and experimental groups rotated.

Row | Substance | food intake (mice [1]) | overall 24 hr period FI, experimental vs control group (mice [2]; after PYY mouth spray vs sterile H2O) | PYY dose response effect to FI (mice [2]; mouth spray, FI measured after one hour) | less food consumed in one hour compared to control group sprayed with H2O (mice [2]; one mouth spray, 5 μg per 100 g of body weight, after 24 hours fasting, average)
1 | Exendin-4 | decrease |  |  | 
2 | PYY: Synthetic PYY purchased from Bachem (Cat #H-6042), diluted in sterile H2O, given as mouth spray [Peptide YY] |  | similar | significant | 15%

Reference: patent US11311633B2, “Satiation peptides for weight loss and altered taste sensitivity” (University of Florida Research Foundation, Incorporated, priority 2016, dated 2022)
